Measured values reported in ChEMBL document CHEMBL3045509, “Oxadiazolo pyrrolidine carboxamides as enoyl-ACP reductase inhibitors: design, synthesis and antitubercular activity screening” (2013).
In brackets after ≈: the same amount, converted by molar mass.

These compounds were tested on Mycobacterium tuberculosis (assay: Antitubercular activity against Mycobacterium tuberculosis H37Rv MTCC 300 after 7 days by Alamar blue assay). Details: H37Rv MTCC 300, 168 h.
Type: functional
In the case of `O=C(Nc1nnc(-c2ccc([N+](=O)[O-])cc2)o1)C1CC(=O)N(c2ccccc2)C1` (stereo unspecified), the MIC is reported as 25 µg/mL (≈ 63.6 µM). `COc1ccc(-c2nnc(NC(=O)C3CC(=O)N(c4ccccc4)C3)o2)cc1` (stereo unspecified) showed an MIC of 3.12 µg/mL (≈ 8.26 µM). `Cc1ccc(-c2nnc(NC(=O)C3CC(=O)N(c4ccccc4)C3)o2)cc1` (stereo unspecified) was tested, and the MIC was 50 µg/mL (≈ 138 µM). Work on `O=C(Nc1nnc(-c2ccc(Cl)cc2)o1)C1CC(=O)N(c2ccccc2)C1` (stereo unspecified) yielded an MIC of 25 µg/mL (≈ 65.3 µM). Work on `O=C(Nc1nnc(-c2ccccc2)o1)C1CC(=O)N(c2ccccc2)C1` (stereo unspecified) yielded an MIC of 12.5 µg/mL (≈ 35.9 µM). `NNC(=O)c1ccncc1` [ISONIAZID] showed an MIC of 0.25 µg/mL (≈ 1.82 µM).
